Data reported in patent US8580975B2, “Synthesis of macrocyclic cancer chemotherapy agents and methods of use” (Purdue Research Foundation, priority 2008, dated 2013).

Assays:
[1] = test system: P388 murine leukemia cells; assay: cell proliferation assay; assay type: cell-based
[2] = test system: P388 murine leukemia cells; settings: background, natural peloruside A; cited from earlier work
[3] = Mus musculus, P388 murine leukemia cells

Row | Molecule | IC50 [1, 3] | IC50 ([1]; P388 murine leukemia cells) | also measured
1 | CC[C@H](/C=C(/C)[C@@H]1C[C@@H](OC)C[C@H](O)C(C)(C)[C@@]2(O)O[C@@H](C[C@@H](OC)CC(=O)O1)C[C@@H](O)[C@H]2O)CO [2-des-Hydroxy-7-des-methoxy-7-hydroxy-Peloruside A] | 320 nM | – | –
2 | CC[C@H](/C=C(/C)[C@@H]1C[C@@H](OC)C[C@H](O)C(C)(C)[C@@]2(O)O[C@@H](C[C@@H](OC)CC(=O)O1)C[C@@H](OC)[C@H]2O)CO [2-des-Hydroxy-Peloruside A] | 120 nM | – | –
3 | CC[C@H](/C=C(/C)[C@@H]1C[C@@H](OC)C[C@H](O)C(C)(C)C(=O)[C@H](O)[C@H](OC)C[C@@H](O)C[C@@H](OC)CC(=O)O1)CO [Open Chain Isomer Of 2-Des-Hydroxy-Peloruside A] | – | – | IC50 ([1]; Mus musculus, P388): > 5000 nM
4 | (+)-Peloruside A [reference compound] | – | 10 nM | IC50 value, antitumor activity against P388 murine leukemia cells [2]: 0.01 µg/mL
5 | epi-C-11 Peloruside A | – | 10 nM | –
